Experimental data: publication PMC9607427, “Novel 7-Chloro-(4-thioalkylquinoline) Derivatives: Synthesis and Antiproliferative Activity through Inducing Apoptosis and DNA/RNA Damage” (Pharmaceuticals, 2022)

What was measured:
[1] = system: MRC-5 (noncancerous human lung fibroblasts); assay: Cytotoxic MTS assay, MRC-5; assay type: cell-based
Experimental: (§1) In vitro cytotoxic activity of final compounds 5–82 was evaluated after 3 days of incubation against eight cell lines derived from human solid tumors including lung (A549 cells) and colon (HCT116 and HCT116p53−/−) carcinomas, as well as leukemia cell lines (CCRF-CEM, CEM-DNR, K562, and K562-TAX) and osteosarcoma (U2OS cells). For comparison, non-malignant BJ and MRC-5 fibroblasts, and BJLD and MCR-5LD fibroblasts doxorubicin-resistant cell lines were used. Concentrations inhibiting the cell growth by 50% (IC50) were determined using a quantitative metabolic staining with 3-(4,5-dimethylthiazol-2yl)-5-(3-carboxymethoxyphenyl)-2-(4-sulfophenyl)-2H-tetrazolium (MTS) and are summarized in (Table 3).
(§2) Cytotoxic activity was determined by MTS assay following 72 h of incubation. IC50 is the lowest concentration that kills 50% of cells. The standard deviation in cytotoxicity assays is typically up to 20% of the average value. […] The tested cell lines: A549 (lung adenocarcinoma), BJ (noncancerous human fibroblasts from foreskin), BJLD (human lung fibroblast doxorubicin-resistant), CCRF-CEM (childhood T cell acute lymphoblastic leukemia), a daunorubicin-resistant subline of CCRF-CEM cells (CEM-DNR bulk), HCT116 (colorectal carcinoma), HCT116p53−/− (HCT116 with deleted p53 gene), K562 (chronic myeloid leukemia), K562-TAX (chronic myeloid leukemia paclitaxel-resistant subline), MRC-5 (noncancerous human lung fibroblasts), MRC-5LD (noncancerous human lung fibroblasts doxorubicin-resistant), and U2OS (osteosarcoma).
(§3) All cell lines were purchased from the American Tissue Culture Collection (ATCC). The A549 cell line is lung adenocarcinoma. MRC-5 and BJ cell lines were used as a non-tumor control and represent human fibroblasts. (MRC-5 LD and BJLD) are doxorubicin-resistant human lung fibroblast cell lines. The CCRF-CEM line is derived from T lymphoblastic leukemia, evincing high chemosensitivity, whereas K562 represent cells from an […] patient sample with bcr-abl translocation. The daunorubicin-resistant subline of CCRF-CEM cells (CEM-DNR bulk) and paclitaxel-resistant subline K562-TAX were selected in our laboratory by the cultivation of maternal cell lines in increasing concentrations of daunorubicin or paclitaxel, respectively. The CEM-DNR bulk cells overexpress MRP-1 and P-glycoprotein protein, whereas K562-TAX cells overexpress P-glycoprotein only. Both proteins belong to the family of ABC transporters and are involved in the primary and/or acquired multidrug-resistance phenomenon. The U2OS cell line is derived from osteosarcoma, HCT116 is a colorectal tumor cell line and its p53 gene knock-down counterpart (HCT116p53−/−, Horizon Discovery Ltd., Cambridge, UK) is a model of human cancers with p53 mutation frequently associated with poor prognosis. The cells were maintained in nunc/corning 80 cm^2 plastic tissue culture flasks and cultured in a cell culture medium according to ATCC or Horizon recommendations (DMEM/RPMI 1640 with 5 g/L glucose, 2 mM glutamine, 100 U/mL penicillin, […], 10% fetal calf serum, and NaHCO3).
(§4) The activity of compounds was determined using a standard 3-(4,5-dimethylthiazol-2-yl)-5-(3-carboxymethoxyphenyl)-2-(4-sulfophenyl)-2H-tetrazolium (MTS) and it was performed at the Institute of Molecular and Translational Medicine by a robotic platform (High-ResBiosolutions). Cell suspensions were prepared and diluted according to the particular cell type and the expected target cell density (25,000–35,000 cells/mL based on cell growth characteristics). Cells were added by automatic pipettor (30 µL) into 384-well microtiter plates. All tested compounds were dissolved in 100% DMSO and four-fold dilutions of the intended test concentration were added in 0.15 µL aliquots at time zero to the microtiter plate wells by the echo acoustic non-contact liquid handler Echo550 (Labcyte). […]

[2] = system: A549 (lung adenocarcinoma); assay: Cytotoxic MTS assay, A549; assay type: cell-based, human
Experimental: as §1, §2, §3, §4

[3] = system: CCRF-CEM (childhood T cell acute lymphoblastic leukemia); assay: Cytotoxic MTS assay, CCRF-CEM; assay type: cell-based, human
Experimental: as §1, §2, §3, §4

[4] = system: HCT116 (colorectal carcinoma); assay: Cytotoxic MTS assay, HCT116; assay type: cell-based, human
Experimental: as §1, §2, §3, §4

[5] = system: MRC-5LD (noncancerous human lung fibroblasts doxorubicin-resistant); assay: Cytotoxic MTS assay, MRC-5LD; assay type: cell-based
Experimental: as §1, §2, §3, §4

[6] = system: BJ (noncancerous human fibroblasts from foreskin); assay: Cytotoxic MTS assay, BJ; assay type: cell-based
Experimental: as §1, §2, §3, §4

[7] = system: eight human cancer and 4 non-tumor cell lines; assay: Cytotoxic MTS assay, whole panel of tested cell lines; assay type: cell-based; settings: for Selectivity for cancer cells compared against BJ and MRC-5 cells: colon, leukemia, lung and osteosarcoma cancer cell lines vs BJ and MRC-5
Experimental: as §1, §2, §3, §4

[8] = system: K562-TAX (chronic myeloid leukemia paclitaxel-resistant subline); assay: Cytotoxic MTS assay, K562-TAX; assay type: cell-based, human
Experimental: as §1, §2, §3, §4

[9] = system: CEM-DNR bulk (daunorubicin-resistant subline of CCRF-CEM cells); assay: Cytotoxic MTS assay, CEM-DNR; assay type: cell-based, human
Experimental: as §1, §2, §3, §4

[10] = system: BJLD (human lung fibroblast doxorubicin-resistant); assay: Cytotoxic MTS assay, BJLD; assay type: cell-based
Experimental: as §1, §2, §3, §4

[11] = system: U2OS (osteosarcoma); assay: Cytotoxic MTS assay, U2OS; assay type: cell-based, human
Experimental: as §1, §2, §3, §4

[12] = system: K562 (chronic myeloid leukemia); assay: Cytotoxic MTS assay, K562; assay type: cell-based, human
Experimental: as §1, §2, §3, §4

[13] = system: HCT116p53−/− (HCT116 with deleted p53 gene); assay: Cytotoxic MTS assay, HCT116p53−/−; assay type: cell-based, human
Experimental: as §1, §2, §3, §4

[14] = Cytotoxic MTS assay, whole panel of tested cell lines; assay type: cell-based, human; settings: human; MTS, 72 h of incubation, all tested cell lines; read-out: Cytotoxic activity IC50, tested cell lines (considered inactive)
Experimental: as §1, §2, §3, §4

Row | melting point [°C] | SMILES | IC50 [1] [µM] | IC50 [2] [µM] | IC50 [3] [µM] | IC50 [4] [µM] | IC50 [5] [µM] | IC50 [6] [µM] | Selectivity for leukemic and colorectal cancer cells compared to MRC-5 ([7]; leukemic and colorectal (with and without p53 deletion) cancer cells vs MRC-5) | IC50 [8] [µM] | IC50 [9] [µM] | IC50 [10] [µM] | IC50 [11] [µM] | IC50 [12] [µM] | IC50 [13] [µM] | IC50 at 72 h [14] [µM] | Selectivity for cancer cells compared against BJ and MRC-5 cells [7] | Cancer cell selectivity for A549 cells compared to BJ and MRC-5 cell lines ([2]; A549 vs BJ and MRC-5)
1 |  | COc1ccc(C(=O)OCCCS(=O)(=O)c2cc[n+]([O-])c3cc(Cl)ccc23)cc1 [Compound 73, 3-[(N-Oxide 7-chloroquinolin-4-yl)sulfonyl]propyl-4-methoxybenzoate] | 21.9 | 5.44 | 2.18 | 1.99 | 19 | 12.4 | good selectivity | 4.62 | 4.7 | 10.7 | 5.75 | 2.2 | 2.24 |  |  | 
2 |  | COc1cc(OC)c(C(=O)OCCC[S+]([O-])c2ccnc3cc(Cl)ccc23)cc1OC (stereo not shown) [Compound 56, 3-[(7-Chloroquinolin-4-yl)sulfinyl]propyl-2,4,5-trimethoxybenzoate] |  |  |  |  |  |  |  |  |  |  |  |  |  | > 50 |  | 
3 |  | COc1ccccc1C(=O)OCCC[S+]([O-])c1ccnc2cc(Cl)ccc12 (stereo not shown) [Compound 58, 3-[(7-Chloroquinolin-4-yl)sulfinyl]propyl-2-methoxybenzoate] |  |  |  |  |  |  |  |  |  |  |  |  |  | > 50 |  | 
4 |  | Cc1cc(C)cc(C(=O)OCCCS(=O)(=O)c2cc[n+]([O-])c3cc(Cl)ccc23)c1 [Compound 81, 3-[(N-Oxide 7-chloroquinolin-4-yl)sulfonyl]propyl-3,5-dimethylbenzoate] | 46.7 | 5.32 | 1.2 | 3.46 | 21.9 | 32.5 |  | 6.26 | 6.63 | 25.4 | 5.67 | 3.78 | 4.76 |  | most pronounced selectivity | 
5 | 148 to 150 | O=C(OCC[S+]([O-])c1ccnc2cc(Cl)ccc12)c1ccc(C(F)(F)F)cc1 (stereo not shown) [Compound 51, 2-[(7-Chloroquinolin-4-yl)sulfinyl]ethyl-4-(trifluoromethyl)benzoate] |  |  |  |  |  |  |  |  |  |  |  |  |  | > 50 |  | 
6 | 106 | CC(C)(C)c1ccc(C(=O)OCC[S+]([O-])c2ccnc3cc(Cl)ccc23)cc1 (stereo not shown) [Compound 52, 2-[(7-Chloroquinolin-4-yl)sulfinyl]ethyl-4-tert-butylbenzoate] |  |  |  |  |  |  |  |  |  |  |  |  |  | > 50 |  | 
7 |  | COc1ccc(C(=O)OCCCS(=O)(=O)c2cc[n+]([O-])c3cc(Cl)ccc23)cc1[N+](=O)[O-] [Compound 79, 3-[(N-Oxide 7-chloroquinolin-4-yl)sulfonyl]propyl-4-methoxy-3-nitrobenzoate] | 20.6 | 5.79 | 1.05 | 3.81 | 13.8 | 19 |  | 3.73 | 4.49 | 12 | 4.95 | 6.09 | 4.98 |  | good selectivity | moderate cancer cell selectivity
